Tests used:
CCRF-CEM cells [1] = experiment: mitochondrial membrane potential (ΔΨm) JC-1 assay, CCRF-CEM; assay type: cell-based, human; details: 48 h
Description: The mitochondrial membrane potential was evaluated by flow cytometry using 5,5′,6,6′-tetrachloro-1,1′,3,3′-tetraethylbenzimidazolocarbocyanine iodide (JC-1; Sigma-Aldrich), as previously described.

PIM-1 kinase = target: T1, PIM-1 kinase (Homo sapiens, UniProt P11309); experiment: radiometric P81 filter isotopic kinase assay, PIM-1; assay type: biochemical
T1 construct: made in house
T1 sequence (P11309 whole entry): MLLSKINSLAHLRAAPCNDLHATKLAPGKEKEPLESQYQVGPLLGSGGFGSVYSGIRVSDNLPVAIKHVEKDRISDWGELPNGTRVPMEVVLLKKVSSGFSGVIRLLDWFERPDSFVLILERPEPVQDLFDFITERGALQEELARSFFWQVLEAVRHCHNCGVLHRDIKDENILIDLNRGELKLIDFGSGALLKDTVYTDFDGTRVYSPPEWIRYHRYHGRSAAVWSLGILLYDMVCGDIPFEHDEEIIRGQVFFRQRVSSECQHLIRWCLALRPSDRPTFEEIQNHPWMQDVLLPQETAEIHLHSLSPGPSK
Description: Synthetic peptide […] served as the substrate for CK2, while peptide […] was used as the substrate for PIM-1.
The synthesized compounds were evaluated for their inhibitory activity against human CK2α, the human CK2 holoenzyme, and PIM-1 using the P81 filter-based isotopic assay, as previously described. […] The experimental data were fitted to a dose–response curve using non-linear regression analysis (variable slope) Y = Bottom + (Top − Bottom)/(1 + 10^((LogIC50 − X) × HillSlope) equation in GraphPad Prism (Prism 9, version 9.0.1).

[2] = system: CK2 in MCF-7 cells (Ser529 in NF-κB p65); experiment: Western blot of phosphorylated p65 (Ser529), intracellular CK2 inhibition, MCF-7; assay type: cell-based, human; details: 8 µM, 24 h, untreated cells = 1
Description: (§1) After 24 h of treatment, we assessed site-specific phosphorylation of Ser529 in NF-κB p65 and Ser112 in BAD—a marker of PIM kinase activity—using Western blot analysis (Figure 8). The data for BAD confirmed intracellular inhibition of this kinase by the tested compounds in both cell lines in a dose-dependent manner. A statistically significant decrease in phosphorylated BAD was observed following treatment with 16 µM of compound 1, with relative protein levels reduced to 0.48 and 0.46 in CCRF-CEM and MCF-7 cells, respectively (Figure 8a–c).
(§2) Exponentially growing CCRF-CEM or MCF-7 cells were seeded at a density of 6 × 10^5 cells per 6 cm dish. Compounds were then added, with a final DMSO concentration of 0.5%. Cell lysates were prepared as previously described. The ECL substrate was used for signal detection, and the immunoblots were scanned using a G:BOX Chemi imaging system (Syngene, Cambridge, UK) equipped with GeneSys software, Version 1.4.3.0 (Syngene, Cambridge, UK).
(§3) For densitometric analysis, immunoblots were scanned using the G:BOX Chemi system (Syngene), and the band intensities of phosphorylated and total proteins were quantified with GeneSys software (Syngene, Cambridge, UK). The levels of phosphorylated proteins were normalized to GAPDH, with the value for untreated cells set to 1, and subsequently expressed as a percentage relative to the appropriate control.

[3] = system: CK2 in CCRF-CEM cells (Ser529 in NF-κB p65); experiment: Western blot of phosphorylated p65 (Ser529), intracellular CK2 inhibition, CCRF-CEM; assay type: cell-based, human; details: 16 µM, 24 h, untreated cells = 1
Description: as §1, §2, §3

[4] = system: PIM-1 kinase in MCF-7 cells (Ser112 in BAD); experiment: Western blot of phosphorylated BAD (Ser112), marker of PIM kinase activity, MCF-7; assay type: cell-based, human; details: 16 µM, 24 h, untreated cells = 1
Description: as §1, §2, §3

MCF-7 (breast carcinoma) = experiment: MTT-based viability assay, MCF-7; assay type: cell-based, human
Description: (§4) 3. The cytotoxicity of the newly obtained inhibitors, i.e., 1, 2, and 4 was tested towards four cell lines, i.e., CCRF-CEM (acute lymphoblastic leukemia ALL), MCF-7 (breast carcinoma), MDA-MB-231 (triple negative breast carcinoma), and Vero (Cercopithecus aethiops kidney).
(§5) The CCRF-CEM (acute lymphoblastic leukemia, ALL) and MDA-MB-231 (triple-negative breast adenocarcinoma) cell lines were obtained from the European Collection of Authenticated Cell Cultures (ECACC), while the MCF-7 (hormone-dependent breast adenocarcinoma) and Vero (Cercopithecus aethiops kidney) cell lines were purchased from the American Type Culture Collection (ATCC, Manassas, VA, USA). CCRF-CEM cells were maintained in RPMI-1640 medium, whereas MCF-7 and MDA-MB-231 cells were cultured in DMEM (Sigma-Aldrich Chemical Company, St. Louis, MO, USA). Vero cells were cultured in minimum essential medium eagle (MEM; Sigma-Aldrich). All media were supplemented with 10% fetal bovine serum (FBS), 2 mM L-glutamine, and antibiotics (100 U/mL penicillin and 100 µg/mL streptomycin) (Sigma-Aldrich). Cells were grown in 75-cm^2 culture flasks (Googlab Scientific, Rakocin, Poland) in a humidified atmosphere containing 5% CO2 at 37 °C. All experiments were performed using exponentially growing cultures. Stock solutions of the test compounds were prepared in DMSO and stored at –80 °C for up to one month.
(§6) Following incubation with the tested compounds, the MTT assay was carried out as previously described. Optical density was measured at 570 nm using a BioTek microplate reader (Winooski, VT, USA). All measurements were performed in at least three independent biological replicates.

CCRF-CEM cells [5] = experiment: annexin V/propidium iodide apoptosis, flow cytometry, CCRF-CEM; assay type: cell-based, human; details: 48 h, annexin V binding
Description: The results obtained for CCRF-CEM and MCF-7 are shown in Figure 3 and Figure 4, respectively. […] 1, 79.6% of cells were apoptotic.
CCRF-CEM cells were seeded in 24-well plates at a density of 2 × 10^5 cells/mL. The cells were treated with the tested compounds at concentrations of 8, 16, and 32 µM, followed by incubation for 48 h. After treatment, the cells were harvested and processed according to the previously described protocol. Flow cytometric measurements were conducted within 1 h of cell labeling. Viable, necrotic, early apoptotic, and late apoptotic cells were identified using a BD Accuri C6 Plus flow cytometer and analyzed with BD Accuri C6 Plus software, version 1.0.34.1 (BD Biosciences, San Jose, CA, USA).

[6] = system: caspase-3 in CCRF-CEM cells; experiment: caspase-3 activation, flow cytometry, CCRF-CEM; assay type: cell-based, human; details: 16 µM, 24 h
Description: Since caspase-3 is a key protease activated in the early stages of apoptosis, we next investigated whether apoptosis in CCRF-CEM cells is mediated through caspase-3 activation. Both cpd. […] 1. The results are consistent with the previously observed pro-apoptotic properties of derivative 1.
Caspase-3 activity was measured using the FITC Active Caspase-3 Apoptosis Kit (BD Pharmingen, San Jose, CA, USA) according to the manufacturer’s instructions. The stained cells were measured with a BD Accuri C6 Plus flow cytometer.

[7] = system: CCRF-CEM (acute lymphoblastic leukemia); experiment: MTT-based viability assay, CCRF-CEM; assay type: cell-based, human
Description: as §4, §5, §6

[8] = system: Vero (Cercopithecus aethiops kidney); experiment: MTT-based viability assay, Vero; assay type: cell-based; details: Chlorocebus sabaeus, MTT, 48 h, non-cancerous cells, read-out: IC50 [µM] Vero
Description: as §4, §5, §6

[9] = IC50 for Vero/IC50 for cancer cells

CC(=O)Cn1cnc2c(Br)c(Br)c(Br)c(Br)c21 [compound 1, 1-(4,5,6,7-tetrabromo-1H-benzimidazol-1-yl)propan-2-one]
CCRF-CEM cells with reduced ΔΨm (CCRF-CEM cells [1]; 16 µM): 76%
CCRF-CEM cells with reduced ΔΨm (CCRF-CEM cells [1]; 32 µM): 99.4%
IC50 (PIM-1 kinase): 0.52 ± 0.02 µM
remaining activity at 2 µM (PIM-1 kinase; cpd. concentration 2 μM, read-out: PIM-1 Residual Activity [%]): 22.4 ± 0.9%
remaining activity at 5 µM (PIM-1 kinase; cpd. concentration 5 μM, read-out: PIM-1 Residual Activity [%]): 10.3 ± 0.7%
remaining activity at 20 µM (PIM-1 kinase; cpd. concentration 20 μM, read-out: PIM-1 Residual Activity [%]): 2.9 ± 0.2%
relative level of p65-P (Ser529), MCF-7 [2]: 0.84
relative level of phosphorylated p65 (Ser529), CCRF-CEM [3]: 0.46
relative level of phosphorylated BAD (Ser112), MCF-7 [4]: 0.46
IC50 (MCF-7 (breast carcinoma); Homo sapiens, MCF7, MTT, 48 h, read-out: IC50 [µM] MCF-7): 17.1 ± 2.07 µM
SI (selectivity index) MCF-7 (MCF-7 (breast carcinoma); [9]): 1.18
apoptotic CCRF-CEM cells (CCRF-CEM cells [5]; 8 µM): 23.5%
apoptotic CCRF-CEM cells (CCRF-CEM cells [5]; 16 µM): 79.6%
apoptotic CCRF-CEM cells (CCRF-CEM cells [5]; 32 µM): ~98%
CCRF-CEM cells with the active caspase-3 [6]: 60%
IC50 ([7]; Homo sapiens, CCRF-CEM, MTT, 48 h, read-out: IC50 [µM] CCRF-CEM): 12.4 ± 0.82 µM
SI (selectivity index) CCRF-CEM [7, 9]: 1.62
IC50 [8]: 20.2 ± 3.59 µM

— publication PMC12193579, “Pro-Apoptotic Activity of 1-(4,5,6,7-Tetrabromo-1H-benzimidazol-1-yl)propan-2-one, an Intracellular Inhibitor of PIM-1 Kinase in Acute Lymphoblastic Leukemia and Breast Cancer Cells” (International Journal of Molecular Sciences, 2025)
